Legend:
[1] = molecular target: T1, ACAT (Mus musculus, UniProt Q61263); experiment: ACAT inhibitory activity test in J774 cells (anti-foaming action); assay type: cell-based
T1 construct: J774 cells or HepG2 cells were sown on a 24-well plate; endogenous in cells; host or cells: J774 cells
T1 sequence (Q61263 1-540): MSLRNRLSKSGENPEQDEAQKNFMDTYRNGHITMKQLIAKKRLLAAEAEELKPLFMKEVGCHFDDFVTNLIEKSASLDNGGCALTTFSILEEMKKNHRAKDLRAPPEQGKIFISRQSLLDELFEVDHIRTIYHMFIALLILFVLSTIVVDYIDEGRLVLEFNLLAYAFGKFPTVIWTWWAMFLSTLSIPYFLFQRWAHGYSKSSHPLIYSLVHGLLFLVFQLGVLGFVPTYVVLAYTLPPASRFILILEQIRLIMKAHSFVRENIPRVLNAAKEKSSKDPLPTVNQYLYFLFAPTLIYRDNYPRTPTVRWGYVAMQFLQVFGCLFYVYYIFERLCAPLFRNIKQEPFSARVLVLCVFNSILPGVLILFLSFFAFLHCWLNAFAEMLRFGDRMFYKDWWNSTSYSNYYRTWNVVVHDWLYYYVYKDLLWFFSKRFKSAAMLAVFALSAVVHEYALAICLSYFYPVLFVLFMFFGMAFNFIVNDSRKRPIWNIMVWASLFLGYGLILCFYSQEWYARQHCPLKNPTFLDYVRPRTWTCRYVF
Description: (§1) J774 cells or HepG2 cells were sown on a 24-well plate and incubation was carried out at 37°C for 24 hours in a 5% CO2 incubator using a Dulbecco's modified Eagle's medium for J774 cells and an Eagle's minimum essential medium for HepG2 cells (where both media contained 10% of fetal bovine serum). […] The medium was taken out, washed with PBS twice, extracted with 1.5 mL of hexane-isopropanol (3:2) and concentrated to dryness. The extract was dissolved in isopropanol containing 0.2 mL of 10% Triton X-100 and then total cholesterol (TC) and free cholesterol (FC) were determined by a Cholesterol E Test Wako (Wako Pure Chemical) and a Free Cholesterol E Test Wako (Wako Pure Chemical), respectively. The residue of the cell after extraction was solubilized with 0.25 mL of 2N NaOH at 37°C for 30 minutes and protein was determined by a BCA Protein Assay Reagent (Pierce). From the differencebetween TC and FC, amount of cholesterolester per protein was calculated and, from the comparative calculation with the control, IC50 value was determined.

[2] = test system: ACAT; experiment: ACAT inhibitory activity test in HepG2 cells; assay type: cell-based; conditions: 25-hydroxycholesterol 10 µg/mL, 18 hours, cholesterol ester per protein
Description: as §1

[3] = test system: lipid-loaded model of F1B hamster; experiment: Arteriosclerotic model animal test (lipid-loaded F1B hamster); conditions: for CE/FC Adrenal Gland / CE/FC Lipid Accumulation to Artery / CE/FC Liver / CE/FC Small Intestine: ratio to control (1.0)
Description: Male hamsters of a Bio F1B strain purchased from Nippon Charles River were randomly grouped so that each group comprised six. As from eight weeks age, they were loaded with a high-fat feed (0.3% of cholesterol and 10% of coconut oil) for ten weeks while the drug was administered by mixing with the feed. After ten weeks, blood was collected and cholesterol in plasma was measured. Further, arterywas excised after fixingbyperfusion with a 10% formalin solution. This was incised, lipid which was accumulated in the artery was stained with Oil Red O and the stained area was measured using an image analyzer.
A high-fat feed (0.3% of cholesterol and 10% of coconut oil) was prepared by way of compounding ratio of cholesterol : coconut oil : feed (CE-2) = 0.03:1:9. Incidentally, a high-fat feed was given to the control group and the administered period was 10 weeks.
Hamster under a non-fasted state was anesthetized, subj ected to an abdominal section to expose the abdominal artery and about 2.5 mL of blood were collected. The collected blood was centrifuged at 3, 000 rpm for 15 minutes to collect the plasma and then total cholesterol (TC) and free cholesterol (FC) in plasma were determined by a Cholesterol E-Test Wako (a cholesterol oxidase DAOS method) and a Free Cholesterol E-Test Wako (a cholesterol oxidase DAOS method), respectively.
About 500 mg of liver, small intestine and adrenal body were excised and washed with a physiological saline solution and lipid concentration in the tissues was measured. In the measurement, 10 mL of chloroform : methanol (2:1) as an extracting solution for lipid in the tissue were placed in the liver and the small intestine, homogenized at 3,000 rpm using a Polytron Homogenizer PT 3100 and allowed to stand at 4°C for one night. The extract was centrifuged at 1,500 rpm for 15 minutes, 0.2 mL of the supernatant liquid was evaporated to dryness using a vacuum pump, the residue was dissolved in 50 µL of isopropanol and each lipid was subjected to the same kits whereupon TC and FC were quantified. With regard to the adrenal body, it was finely cut using scissors and 0.5 mL of chloroform : methanol (2:1) was added thereto followed by being allowed to stand at 4°C for one night. That was centrifuged at 1,500 rpm for 15 minutes, 0.2 mL of the supernatant liquid was evaporated to dryness using a vacuum pump, the residue was dissolved in 50 µL of isopropanol and each lipid was subjected to the same kits whereupon TC and FC were quantified.
With regard to the total cholesterol (TC) in plasma in the group to which the drug was administered, the relative ratio to TC in the control group was used as an indicator while, with regard to the tissue, difference between TC and FC was defined as CE (cholesterol ester) and the lipid-constituting ratio, CE/FC, in each organ was determined whereupon their relative ratio to each control was calculated and used as an indicator. Thus, in those indicators, the control group was defined as 100% and the calculation using the following formula was carried out so as to use a plasma TC lowering action by ACAT inhibitory action to liver and small intestine of the group to which the drug was administered as an indicator and also to use the variation of CE/FC ratio by an ACAT inhibitory action to each organ as an indicator. Indicator (%) for total cholesterol in plasma = [(TC of drug-administered group)/(TC of the control group)] × 100 [formula] Indicator (%) for lipid constituting ratio in each organ = [(CE/FC of drug-administered group)/(CE/FC of the control group)] × 100 [formula]
After collection of the blood, a 18-G injection needle was inserted into apex and perfused with a physiological saline solution (120 mmHg) for about 5minutes. It was further perfused with a 10% neutral formalin buffer (120 mmHg) for about 5 minutes. Bulbar and thoracic artery was excised and fixed in a 10% formalin buffer.

[4] = Oral absorption test in rats under a fed condition (plasma concentration); assay type: in vivo; conditions: for AUC(0-inf) / Cmax: rat, plasma, po, 30 mg/kg, rats, fed, oral 30 mg/kg
Description: A solution of the compound of the present invention (dissolved in a mixture of water : PEG 400 = 1:4) or a suspension in 0.5% methyl cellulose (MC) was compulsorily administered per os at. the dose of 30 mg/kg to three rats under a fed condition. Blood after the administration was periodically collected and its concentration in plasma was measured.
The organic layer (upper layer) was collected, the solvent was evaporated in a nitrogen stream, the residue was dissolved in 0.2 mL of a mobile phase (refer to the following) and 80 µL thereof were measured under the following analytical conditions.
The organic layer was collected, the solvent was evaporated in a nitrogen stream, the residue was dissolved in 0.2 mL of a mobile phase (refer to the following) and 80 µL thereof were measured under the following condition for high-performance liquid chromatography. Condition for detection: • (Detector: Single-stage quadrupole mass spectrometer • Ionization method: Atmospheric pressure chemical ionization method • Temperature of nebulizer: 475°C • Corona voltage: 3 kV • Monitoring ion: m/z 569 (hydrogen addition ion of the compound of Example 78), 549 (hydrogen addition ion of the compound of Example 85)) Condition for separation: • (Column: Symmetry RP8 manufactured by Waters (3.0 mmφ × 150 mm) • Temperature of column: 45°C • Mobile phase: a solution where 0.1% ammonium formate (pH 4)/methanol/acetonitrile are mixed in […] • Flow rate: 0.8 mL/min)
To 150 µL of plasma were added a 0.1 mol/L aqueous solution of sodium hydroxide and 0.2 mL of an analogous compound (500 ng/mL of the compound of Example 28 of the Japanese Patent Application No. 8/158,743, i.e. 8-(benzimidazol-2-ylthio)-N-(2,6-diisopropylphenyl)octanamide as an internal standard, stirred and extracted with 6 mL of an isopropanol/hexane (5: 95) solution. The organic layer was collected, the solvent was evaporated in a nitrogen stream, the residue was dissolved in 0.2 mL of a mobile phase (refer to the following) and 80 µL thereof were measured under the following condition for high-performance liquid chromatography.

[5] = Water solubility in liquid I of the Japanese Pharmacopoeia; assay type: physicochemical
[6] = dose 10 mg/kg in feed, 10 weeks
[7] = dose 30 mg/kg in feed, 10 weeks
[8] = dose 100 mg/kg in feed, 10 weeks

## CC(C)c1cc(O)cc(C(C)C)c1NC(=O)CN1CCN(CCSc2nc3cccc(C(F)(F)F)c3o2)CC1.Cl [Compound of the Invention, 2-[4-[2-(7-trifluoromethylbenzoxazol-2-ylthio)ethyl]piperazin-1-yl]-N-(2,6-diisopropyl-4-hydroxyphenyl)acetamide hydrochloride]
[1]
  macrophage selectivity (IC50 (HepG2)/IC50 (J774)): about 45 fold
[2]
  IC50: 2.9 µM
[3]; F1B hamsters, drug in high-fat feed, 10 weeks
  dose from which suppression of lipid accumulation was effective: ≥ 3 mg/kg
[3]; F1B hamsters, total cholesterol in plasma relative to control, Dunnett's test
  plasma cholesterol at doses effective in suppression of lipid accumulation: without a significant decrease of plasma cholesterol
[3]; dose 3 mg/kg in feed, 10 weeks
  CE/FC Adrenal Gland: 1.02
  CE/FC Lipid Accumulation to Artery: 0.69
  CE/FC Liver: 1.08
  CE/FC Small Intestine: 1.16
[3]; [6]
  CE/FC Adrenal Gland: 1.11
  CE/FC Lipid Accumulation to Artery: 0.33
  CE/FC Liver: 0.88
  CE/FC Small Intestine: 1.02
[3]; [7]
  CE/FC Adrenal Gland: 0.89
  CE/FC Lipid Accumulation to Artery: 0.21
  CE/FC Liver: 0.60
  CE/FC Small Intestine: 0.91
[3]; [8]
  CE/FC Adrenal Gland: 0.52
  CE/FC Lipid Accumulation to Artery: 0.17
  CE/FC Liver: 0.24
  CE/FC Small Intestine: 0.20
[4]; compared with Example 85, medium 0.5% methyl cellulose (MC) suspension, rats 30 mg/kg
  improvement of oral absorption: about 9.4 fold
[4]; compared with Example 85, medium water/PEG 400 (1:4), rats 30 mg/kg
  increase in oral absorption: about 8 fold
[4]; medium 0.5% MC Suspension
  AUC(0-inf): 639 ng·h/mL
  Cmax: 167 ng/mL
[4]; medium PEG 400: Water (4:1)
  AUC(0-inf): 486 ng·h/mL
  Cmax: 141 ng/mL
[5]; compared with the lead compound (Example 85)
  increase of solubility: 5 fold
[5]; pH 1.2, simulated gastric fluid
  solubility: 500 µg/mL

From patent publication EP1431294A1, “VASCULAR WALL-SELECTIVE ACAT INHIBITOR” (Kowa Company Ltd., priority 2001, dated 2003)
